From the NIST ThermoML archive (doi:10.1016/j.jct.2014.12.027) come the findings set out here.

A short description of the data set: activity coefficient (dimensionless); of the first substance listed, at infinite dilution; xn = mol fraction of the nth substance listed. The note with it: 101 kPa, Liquid, Chromatography, x1 = 0.

± gives the expanded uncertainty stated by the source.

For the molecule `Cc1ccccc1C` [1,2-dimethylbenzene] + CCCC[n+]1ccc(C)cc1.N#CC(=C=[N-])C#N, the activity coefficient stood at 1.4 ± 0.09 (318.15 K); 1.45 ± 0.1 (328.15 K); 1.49 ± 0.1 (338.15 K); 1.56 ± 0.1 (348.15 K); 1.61 ± 0.11 (358.15 K); 1.66 ± 0.11 (368.15 K).
Regarding `Cc1cccc(C)c1` [1,3-dimethylbenzene] + CCCC[n+]1ccc(C)cc1.N#CC(=C=[N-])C#N, the activity coefficient runs as follows: (328.15 K) 1.71 ± 0.11; (338.15 K) 1.76 ± 0.12; (348.15 K) 1.82 ± 0.12; (358.15 K) 1.88 ± 0.13; (368.15 K) 1.94 ± 0.13.
For the molecule `Cc1ccc(C)cc1` [1,4-dimethylbenzene] + CCCC[n+]1ccc(C)cc1.N#CC(=C=[N-])C#N, the activity coefficient (328.15 K) came to 1.66 ± 0.11; the activity coefficient (338.15 K) is 1.71 ± 0.11; the activity coefficient (348.15 K) was 1.79 ± 0.12; the activity coefficient (358.15 K) is 1.84 ± 0.12; the activity coefficient (368.15 K) was determined as 1.9 ± 0.13.
As to `C1COCCO1` [1,4-dioxane] + CCCC[n+]1ccc(C)cc1.N#CC(=C=[N-])C#N, the activity coefficient by setting is: (318.15 K) 0.573 ± 0.041; (328.15 K) 0.601 ± 0.042; (338.15 K) 0.624 ± 0.043; (348.15 K) 0.656 ± 0.045; (358.15 K) 0.68 ± 0.046; (368.15 K) 0.708 ± 0.047.
For the molecule `C#CCCCCC` [1-heptyne] + CCCC[n+]1ccc(C)cc1.N#CC(=C=[N-])C#N, the activity coefficient (318.15 K) was found to be 4.09 ± 0.28; the activity coefficient (328.15 K) stood at 4.15 ± 0.28; the activity coefficient (338.15 K) was found to be 4.22 ± 0.29; the activity coefficient (348.15 K) came out at 4.29 ± 0.29; the activity coefficient (358.15 K) worked out at 4.34 ± 0.3; the activity coefficient (368.15 K) was determined as 4.43 ± 0.3.
As to `C#CCCCC` [1-hexyne] + CCCC[n+]1ccc(C)cc1.N#CC(=C=[N-])C#N, the activity coefficient is, setting by setting: (318.15 K) 2.98 ± 0.2; (328.15 K) 3.04 ± 0.21; (338.15 K) 3.1 ± 0.21; (348.15 K) 3.17 ± 0.22; (358.15 K) 3.25 ± 0.22; (368.15 K) 3.3 ± 0.22.
With `CCC[N+](=O)[O-]` [1-nitropropane] + CCCC[n+]1ccc(C)cc1.N#CC(=C=[N-])C#N, the activity coefficient by setting is: (328.15 K) 0.748 ± 0.049; (338.15 K) 0.756 ± 0.05; (348.15 K) 0.769 ± 0.05; (358.15 K) 0.783 ± 0.051; (368.15 K) 0.792 ± 0.052.
For `CC(C)CO` [2-methyl-1-propanol] + CCCC[n+]1ccc(C)cc1.N#CC(=C=[N-])C#N, the activity coefficient (318.15 K) stood at 1.33 ± 0.086; the activity coefficient (328.15 K) amounted to 1.23 ± 0.079; the activity coefficient (338.15 K) is 1.16 ± 0.074; the activity coefficient (348.15 K) amounted to 1.11 ± 0.07; the activity coefficient (358.15 K) was 1.06 ± 0.067; the activity coefficient (368.15 K) turned out to be 1.02 ± 0.064.
Turning to `CC(C)=O` [acetone] + CCCC[n+]1ccc(C)cc1.N#CC(=C=[N-])C#N, the activity coefficient was 0.598 ± 0.042 (318.15 K); 0.617 ± 0.043 (328.15 K); 0.634 ± 0.044 (338.15 K); 0.656 ± 0.045 (348.15 K); 0.672 ± 0.046 (358.15 K); 0.686 ± 0.046 (368.15 K).
As to `CC#N` [acetonitrile] + CCCC[n+]1ccc(C)cc1.N#CC(=C=[N-])C#N, the activity coefficient came out at 0.584 ± 0.041 (318.15 K); 0.59 ± 0.04 (328.15 K); 0.593 ± 0.042 (338.15 K); 0.599 ± 0.042 (348.15 K); 0.604 ± 0.042 (358.15 K); 0.613 ± 0.043 (368.15 K).
As to `c1ccccc1` [benzene] + CCCC[n+]1ccc(C)cc1.N#CC(=C=[N-])C#N, the activity coefficient by setting is: (318.15 K) 0.889 ± 0.057; (328.15 K) 0.916 ± 0.058; (338.15 K) 0.937 ± 0.059; (348.15 K) 0.976 ± 0.061; (358.15 K) 1 ± 0.06; (368.15 K) 1.02 ± 0.06.
For the molecule `CCCCO` [butan-1-ol] + CCCC[n+]1ccc(C)cc1.N#CC(=C=[N-])C#N, the activity coefficient was 1.31 ± 0.09 (318.15 K); 1.23 ± 0.08 (328.15 K); 1.17 ± 0.07 (338.15 K); 1.13 ± 0.07 (348.15 K); 1.09 ± 0.07 (358.15 K); 1.05 ± 0.07 (368.15 K).
Take `C1CCCCCC1` [cycloheptane] + CCCC[n+]1ccc(C)cc1.N#CC(=C=[N-])C#N: the activity coefficient runs as follows: (318.15 K) 12.8 ± 0.9; (328.15 K) 12.1 ± 0.8; (338.15 K) 11.7 ± 0.8; (348.15 K) 11.1 ± 0.8; (358.15 K) 10.6 ± 0.7; (368.15 K) 10.3 ± 0.7.
For `C1CCCCC1` [cyclohexane] + CCCC[n+]1ccc(C)cc1.N#CC(=C=[N-])C#N, the activity coefficient is, setting by setting: (318.15 K) 11.1 ± 0.8; (328.15 K) 10.5 ± 0.7; (338.15 K) 10 ± 0.7; (348.15 K) 9.57 ± 0.65; (358.15 K) 9.07 ± 0.62; (368.15 K) 8.65 ± 0.59.
As to `CCCCCCCCCC` [decane] + CCCC[n+]1ccc(C)cc1.N#CC(=C=[N-])C#N, the activity coefficient amounted to 90.4 ± 6.2 (318.15 K); 83 ± 5.7 (328.15 K); 76.5 ± 5.2 (338.15 K); 72.6 ± 5 (348.15 K); 67.7 ± 4.6 (358.15 K); 62.8 ± 4.3 (368.15 K).
On to `CCO` [ethanol] + CCCC[n+]1ccc(C)cc1.N#CC(=C=[N-])C#N, for which the activity coefficient amounted to 0.917 ± 0.058 (318.15 K); 0.876 ± 0.056 (328.15 K); 0.838 ± 0.054 (338.15 K); 0.812 ± 0.053 (348.15 K); 0.784 ± 0.051 (358.15 K); 0.755 ± 0.05 (368.15 K).
Turning to `CCOC(C)=O` [ethyl acetate] + CCCC[n+]1ccc(C)cc1.N#CC(=C=[N-])C#N, the activity coefficient runs as follows: (318.15 K) 1.3 ± 0.08; (328.15 K) 1.33 ± 0.09; (338.15 K) 1.36 ± 0.09; (348.15 K) 1.4 ± 0.09; (358.15 K) 1.42 ± 0.09; (368.15 K) 1.46 ± 0.1.
On to `CCc1ccccc1` [ethylbenzene] + CCCC[n+]1ccc(C)cc1.N#CC(=C=[N-])C#N, for which the activity coefficient (318.15 K) came out at 1.78 ± 0.12; the activity coefficient (328.15 K) amounted to 1.83 ± 0.12; the activity coefficient (338.15 K) was found to be 1.87 ± 0.13; the activity coefficient (348.15 K) came to 1.93 ± 0.13; the activity coefficient (358.15 K) was determined as 1.98 ± 0.13; the activity coefficient (368.15 K) was determined as 2.01 ± 0.14.
For `CCCCCCC` [heptane] + CCCC[n+]1ccc(C)cc1.N#CC(=C=[N-])C#N, the activity coefficient reads like this: (318.15 K) 33.7 ± 2.3; (328.15 K) 31.3 ± 2.1; (338.15 K) 29.7 ± 2; (348.15 K) 27.6 ± 1.9; (358.15 K) 25.8 ± 1.8; (368.15 K) 24.7 ± 1.7.
Consider `C=CCCCC` [hex-1-ene] + CCCC[n+]1ccc(C)cc1.N#CC(=C=[N-])C#N, for which the activity coefficient was found to be 11.1 ± 0.8 (318.15 K); 10.5 ± 0.7 (328.15 K); 10.2 ± 0.7 (338.15 K); 9.72 ± 0.66 (348.15 K); 9.17 ± 0.63 (358.15 K); 8.75 ± 0.6 (368.15 K).
Turning to `CCCCCC` [hexane] + CCCC[n+]1ccc(C)cc1.N#CC(=C=[N-])C#N, the activity coefficient stood at 24.3 ± 1.7 (318.15 K); 23 ± 1.6 (328.15 K); 22.1 ± 1.5 (338.15 K); 20.8 ± 1.4 (348.15 K); 20 ± 1.4 (358.15 K); 19.1 ± 1.3 (368.15 K).
Take `CO` [methanol] + CCCC[n+]1ccc(C)cc1.N#CC(=C=[N-])C#N: the activity coefficient by setting is: (318.15 K) 0.663 ± 0.045; (328.15 K) 0.644 ± 0.044; (338.15 K) 0.625 ± 0.043; (348.15 K) 0.612 ± 0.043; (358.15 K) 0.593 ± 0.042; (368.15 K) 0.58 ± 0.041.
In the case of `CC1CCCCC1` [methylcyclohexane] + CCCC[n+]1ccc(C)cc1.N#CC(=C=[N-])C#N, the activity coefficient came out at 15.8 ± 1.1 (318.15 K); 14.8 ± 1 (328.15 K); 13.9 ± 1 (338.15 K); 13.4 ± 0.9 (348.15 K); 12.7 ± 0.9 (358.15 K); 12.1 ± 0.8 (368.15 K).
For `CCCCCCCCC` [nonane] + CCCC[n+]1ccc(C)cc1.N#CC(=C=[N-])C#N, the activity coefficient is 65.1 ± 4.5 (318.15 K); 59.1 ± 4 (328.15 K); 55.7 ± 3.8 (338.15 K); 51.2 ± 3.5 (348.15 K); 47.6 ± 3.3 (358.15 K); 45.8 ± 3.1 (368.15 K).
As to `C=CCCCCCC` [oct-1-ene] + CCCC[n+]1ccc(C)cc1.N#CC(=C=[N-])C#N, the activity coefficient reads like this: (318.15 K) 21.3 ± 1.5; (328.15 K) 20.3 ± 1.4; (338.15 K) 19.7 ± 1.3; (348.15 K) 18.9 ± 1.3; (358.15 K) 18.3 ± 1.3; (368.15 K) 17.8 ± 1.2.
For `CCCCCCCC` [octane] + CCCC[n+]1ccc(C)cc1.N#CC(=C=[N-])C#N, the activity coefficient by setting is: (318.15 K) 46.4 ± 3.2; (328.15 K) 43.2 ± 3; (338.15 K) 41.1 ± 2.8; (348.15 K) 38.4 ± 2.6; (358.15 K) 36.3 ± 2.5; (368.15 K) 34.6 ± 2.4.
For `CCCC(C)=O` [pentan-2-one] + CCCC[n+]1ccc(C)cc1.N#CC(=C=[N-])C#N, the activity coefficient (318.15 K) came out at 0.955 ± 0.06; the activity coefficient (328.15 K) stood at 0.986 ± 0.062; the activity coefficient (338.15 K) was 1.01 ± 0.06; the activity coefficient (348.15 K) came out at 1.05 ± 0.07; the activity coefficient (358.15 K) worked out at 1.07 ± 0.07; the activity coefficient (368.15 K) is 1.1 ± 0.07.
As to `CCC(=O)CC` [pentan-3-one] + CCCC[n+]1ccc(C)cc1.N#CC(=C=[N-])C#N, the activity coefficient by setting is: (318.15 K) 0.942 ± 0.059; (328.15 K) 0.976 ± 0.061; (338.15 K) 1.01 ± 0.06; (348.15 K) 1.05 ± 0.07; (358.15 K) 1.07 ± 0.07; (368.15 K) 1.11 ± 0.07.
